Measured values as given in patent publication US8604217B2, “Compound, a process for its preparation, a pharmaceutical composition, use of a compound, a method for modulating or regulating serine/threonine kinases and a serine/threonine kinases modulating agent” (Selvita S.A., priority 2009, dated 2013).

Experiments:
PIM-1 = PIM-1 (Homo sapiens (Human), UniProt P11309); assay: Luminometric kinase assay for PIM1 kinase (Kinase-Glo); assay type: biochemical; settings: 1 μM ATP, 25 min at RT
Method in brief: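 Kinase and substrate reacted in 8 mM MOPS/NaOH pH7.0, 0.2 mM EDTA, 2 mM MgCl2 with 1 μM ATP for 25 min at RT, compounds serially diluted from 1 μM. Remaining ATP read by Kinase-Glo luminescence; IC50 from variable-slope sigmoidal fit.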

[1] = system: human myelomonocytic, biphenotypic leukemia MV4-11 cells; assay: Growth inhibition test (MTS) on MV4-11 cells; assay type: cell-based; settings: Homo sapiens, MV4-11, 72 hours, read-out: MV-4-11 ED50
Method in brief: MV4-

[2] = system: human erytroblast leukemia HEL-92.1.7 cells; assay: Growth inhibition test (MTS) on HEL-92.1.7 cells; assay type: cell-based; settings: 72 hours, read-out: HEL92 ED50
Procedure: (§1) Ten thousand cells of human erytroblast leukemia HEL-92.1.7 were inoculated into each well of a 96-well microplate (manufactured by Corning Corp.) using RPMI 1640 medium (culture medium) containing 10% fetal calf serum (FCS). Next day, a dimethyl sulfoxide (DMSO) solution of each test compound prepared in a concentration of 10 mmol/L was further diluted with culture medium to the desired concentrations (0.1, 0.5, 1, 2.5, 5 and 10 micromol/L), and the diluted solution was added to each well. The individual wells were further cultured in 5% carbon dioxide at 37° C. for 72 hours. After completion of the culture, 10 μl MTS (3-(4,5-Dimethyl-2-thiazolyl)-5-(carboxymethoxyphenyl)-2-(4-sulfophenyl)-2H-tetrazolium, inner salt assay (CellTiter96® AQueous One Solution Cell Proliferation Assay, Promega) was added to each well, and culturing was performed in 5% carbon dioxide at 37° C. for 2 hours. Using a microplate spectrophotometer (Synergy 2 multi-mode microplate reader (BioTek)), the absorbance of each well was measured at 490 nm. The value for cells not incorporated with a test compound was designated as 100%. By comparing these values with the absorbance difference obtained at the well in which each test compound was added, the cell viability (% viability) after treatment with the test compound was calculated.

[3] = system: human breast adenocarcinoma MCF7 cells; assay: Growth inhibition test (MTS) on MCF7 cells; assay type: cell-based; settings: Homo sapiens, MCF7, 72 hours, read-out: MCF-7 ED50
Procedure: as §1, with “Two” for “Ten”, “breast adenocarcinoma MCF7” for “erytroblast leukemia HEL-92.1.7”, “Corp.), and” for “Corp.)”, “DMEM” for “RPMI 1640”

[4] = system: human prostate adenocarcinoma PC3 cells; assay: Growth inhibition test (MTS) on PC3 cells; assay type: cell-based; settings: Homo sapiens, PC-3, 72 hours, read-out: PC-3 ED50
From the text: as §1, with “Two” for “Ten”, “prostate adenocarcinoma PC3” for “erytroblast leukemia HEL-92.1.7”, “Corp.), and” for “Corp.)”, “F12K (Ham's F12:[…] 1:1)” for “RPMI 1640”

[5] = system: human hepatoma HepG2 cells; assay: Growth inhibition test (MTS) on HepG2 cells; assay type: cell-based; settings: 72 hours, read-out: HepG2 ED50
Procedure: as §1, with “Two” for “Ten”, “hepatoma HepG2” for “erytroblast leukemia HEL-92.1.7”, “DMEM” for “RPMI 1640”

[6] = system: human acute lymphocytic leukemia E6.1 Jurkat cells; assay: Growth inhibition test (MTS) on E6.1 Jurkat cells; assay type: cell-based; settings: 72 hours, read-out: Jurkat ED50
Procedure: as §1, with “Twenty” for “Ten”, “acute lumphocytic” for “erytroblast”, “E6.1 Jurkat” for “HEL-92.1.7”, “[…]” for “1640”

Chain of PIM-1 (P11309 whole entry): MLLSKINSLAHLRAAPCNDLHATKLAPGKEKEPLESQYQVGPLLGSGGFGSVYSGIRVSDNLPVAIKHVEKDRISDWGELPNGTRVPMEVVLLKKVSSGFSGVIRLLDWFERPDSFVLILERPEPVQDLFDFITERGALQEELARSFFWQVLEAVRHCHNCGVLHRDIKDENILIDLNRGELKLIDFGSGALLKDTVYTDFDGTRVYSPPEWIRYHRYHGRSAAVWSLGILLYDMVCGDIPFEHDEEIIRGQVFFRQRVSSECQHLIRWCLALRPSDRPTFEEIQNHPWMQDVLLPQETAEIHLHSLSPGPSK

| SMILES | IC50 (PIM-1) [µM] | IC50 [1] [µM] | IC50 [2] [µM] | IC50 [3] [µM] | IC50 [4] [µM] | IC50 [5] [µM] | IC50 [6] [µM] |
| --- | --- | --- | --- | --- | --- | --- | --- |
| N[C@H]1CCCC[C@H]1Nc1nc2c(Br)c(Br)c(Br)c(Br)c2[nH]1 (relative stereo) [Compound 304cis, cis N1-(4,5,6,7-tetrabromo-1H-benzo[d]imidazol-2-yl)cyclohexane-1,2-diamine] | 0.0069 | 0.33 | 1.82 | 0.7 | 1.47 | 1.34 | – |
| Brc1c(Br)c(Br)c2[nH]c(NC3CCCCCCC3)nc2c1Br [Compound 261, 4,5,6,7-tetrabromo-N-cyclooctyl-1H-benzo[d]imidazol-2-amine] | 0.138 | 3.41 | – | 4.94 | 3.2 | 4.29 | 4.52 |
| CN1CCC(N(C)CC(Nc2nc3c(Br)c(Br)c(Br)c(Br)c3[nH]2)c2ccccc2)CC1 (stereo not shown) [Compound 263, N-(4,5,6,7-tetrabromo-1H-benzo[d]imidazol-2-yl)-N′-methyl-N′-(1-methylpiperidin-4-yl)-1-phenylethane-1,2-diamine] | 0.0475 | 2.39 | – | 2.76 | 2.64 | 2.66 | 2.56 |
| CCN1CCCC1CNc1nc2c(Br)c(Br)c(Br)c(Br)c2[nH]1 (stereo not shown) [Compound 265a, 4,5,6,7-tetrabromo-N-((1-ethylpyrrolidin-2-yl)methyl)-1H-benzo[d]imidazol-2-amine] | 0.0674 | 2.22 | – | 3.09 | 4.57 | 1.8 | 3.62 |
| CN(C)CC(CNc1nc2c(Br)c(Br)c(Br)c(Br)c2[nH]1)C(O)c1ccccc1 (stereo not shown) [Compound 272, 2-((4,5,6,7-tetrabromo-1H-benzo[d]imidazol-2-ylamino)methyl)-3-(dimethylamino)-1-phenylpropan-1-ol] | 0.0433 | 2.42 | – | 4.51 | 4.87 | 2.26 | 2.76 |
| N[C@@H]1CCCC[C@H]1Nc1nc2c(Br)c(Br)c(Br)c(Br)c2[nH]1 [Compound 304RR, (1R,2R)-N1-(4,5,6,7-tetrabromo-1H-benzo[d]imidazol-2-yl)cyclohexane-1,2-diamine] | 0.00526 | 0.25 | – | 2.36 | 3.16 | 2.64 | 3.15 |
| N[C@H]1CCCC[C@@H]1Nc1nc2c(Br)c(Br)c(Br)c(Br)c2[nH]1 [Compound 304SS, (1S,2S)-N1-(4,5,6,7-tetrabromo-1H-benzo[d]imidazol-2-yl)cyclohexane-1,2-diamine] | 0.0116 | 0.98 | – | 5.03 | 5.17 | 3.21 | 5.07 |
| COc1ccc(Nc2nc3c(Br)c(Br)c(Br)c(Br)c3[nH]2)cc1OC [Compound 307, 4,5,6,7-tetrabromo-N-(3,4-dimethoxyphenyl)-1H-benzo[d]imidazol-2-amine] | 0.287 | 6.03 | – | 9.43 | 8.31 | 1.23 | 8.97 |
| Nc1ccccc1Nc1nc2c(Br)c(Br)c(Br)c(Br)c2[nH]1 [Compound 332, N1-(4,5,6,7-tetrabromo-1H-benzo[d]imidazol-2-yl)benzene-1,2-diamine] | 0.0162 | 3.27 | 3.15 | – | 7.51 | 6.59 | – |
| Nc1cc(F)c(F)cc1Nc1nc2c(Br)c(Br)c(Br)c(Br)c2[nH]1 [Compound 333, N1-(4,5,6,7-tetrabromo-1H-benzo[d]imidazol-2-yl)-4,5-difluorobenzene-1,2-diamine] | 0.0485 | 3.86 | 3.25 | 4.76 | 2.49 | 4.52 | – |

More lines, now with the values ahead:

| IC50 (PIM-1) [µM] | IC50 [1] [µM] | IC50 [2] [µM] | IC50 [3] [µM] | IC50 [4] [µM] | IC50 [5] [µM] | IC50 [6] [µM] | SMILES |
| --- | --- | --- | --- | --- | --- | --- | --- |
| 0.108 | 4.47 | 6.93 | 3.09 | 8.59 | 2.61 | – | NCc1cccc(CNc2nc3c(Br)c(Br)c(Br)c(Br)c3[nH]2)c1 [Compound 354, N-(3-(aminomethyl)benzyl)-4,5,6,7-tetrabromo-1H-benzo[d]imidazol-2-amine] |
| 0.0452 | 1.65 | 3.98 | 2.54 | 2.4 | 1.32 | – | CNCCCN(Cc1ccccc1)c1nc2c(Br)c(Br)c(Br)c(Br)c2[nH]1 [Compound 372, N-benzyl-4,5,6,7-tetrabromo-N-(3-(methylamino)propyl)-1H-benzo[d]imidazol-2-amine] |
| – | 5.17 | 7.93 | – | 6.61 | 9.4 | – | CCOC(=O)N1CCN(c2nc3c(Br)c(Br)c(Br)c(Br)c3[nH]2)CC1 [Compound 376, ethyl 4-(4,5,6,7-tetrabromo-1H-benzo[d]imidazol-2-yl)piperazine-1-carboxylate] |
| – | 5.92 | 9.73 | – | 5.99 | 9.72 | – | CCOC(=O)N1CCN(c2nc3c(Br)c(Br)c(Br)c(Br)c3n2C(=O)OCC)CC1 [Compound 377, ethyl 2-(4-(ethoxycarbonyl)piperazin-1-yl)-4,5,6,7-tetrabromo-1H-benzo[d]imidazole-1-carboxylate] |
